Results on 27 molecules are retold here after patent US7196110B2, “N-substituted tricyclic 3-aminopyrazoles as inhibitors for the treatment of cell proliferative disorders” (Janssen Phamaceutica N.V., priority 2002, dated 2007).

Each structure is given as a SMILES string. Read-outs that look alike come from different tables or passages of the source.

The target of this assay is T1, PDGF-receptor beta enzyme comprising the tyrosine kinase domain (Homo sapiens, UniProt P09619).
T1 construct: from amino acid 545 to 1106 of GenBank Access NO: AAA36427
Briefly: Inhibition of PDGF-receptor kinase activity (cell-free, PLC1 peptide, 33P Flashplate). The assay is classed as biochemical. The settings on record: for inhibition at 10 µM: read-out: Percent Inhibition @ 10 uM. On the procedure:
PDGF-R kinase activity was assayed by its ability to phosphorylate one of its target proteins, PLCγ, in a cell-free system, in particular, a PLC1 peptide comprising the tyrosine residue where the phosphorylation occurs was used for the assay.
10× Kinase Buffer (500 mM Tris-HCl pH=8, 100 mM MgCl2, 1 mM Na3VO4); 10 mM DTT (final concentration at 1 mM in assay); 10 mM ATP (final concentration at 5 μM in assay); ^33P-γ-ATP (Cat. No.: NEG/602H. 2000-3000 Ci/mmol) purchased from NEN; Purified, soluble, recombinant PDGF-receptor beta enzyme comprising the tyrosine kinase domain (from amino acid 545 to 1106 of GenBank Access NO: AAA36427 ) at 0.4 mg/mL; Enzyme Dilution Buffer (50 mM Tris-HCl pH=8.0, 0.1% BSA); Wash/Stop Buffer (PBS +100 mM EDTA); NEN Streptavidin Flashplates (Cat. No.: SMP-103) which binds to the biotinylated PLC1 peptide but not the PDGF-R enzyme; PLC1 peptide (Biotin-[…]-Amide) at 1 mM in 50 mM Tris-HCL with pH of 8.0.
Reagents were first mixed according the following regimen:
The above reaction mixture was dispensed into each well of a Flashplate at 70 μl/well. To test the effect of a compound on PDGF-R kinase activity, the test compound either in a fixed concentration or in serially diluted concentrations in 100% DMSO was added to appropriate wells at 1 μl/well.
Enzyme PDGF-R was diluted in Enzyme dilution buffer as following:
The kinase reaction was initiated by adding 30 μl of diluted PDGF-R enzyme solution to each well on the Flashplate containing hot ATP and PLC1, except wells of column 12 rows E through H, which were used to calculate the plate background. The Flashplate was swirled to mix and was incubated at 30° C. for 60 minutes. Then, the reaction mixture was discarded and the Flashplate was washed 3 times each with 200 μl Wash/Stop Buffer. Subsequently, each well on the Flashplate was filled with 200 μl of Wash/Stop buffer. The amount of ^33P retained in each well was measured using a Packard TopCount after the plate was sealed with a transparent plate sealer.
The percentage of inhibition of the test compound on PDGF-R kinase activity is defined as […].
In order to test the potency of inhibition of present compounds, an IC50 for an individual compound was measured using the above procedure. As used herein, the IC50 for PDGF-R kinase activity refers to the concentration of an inhibitor at which the activity of the PDGF-R kinase is reduced by one-half as compared with reactions containing no inhibitor.

Where [1] appears, read: PDGF-R kinase activity, compound at 10 uM.
[2] abbreviates: PDGF-R kinase activity, read-out: IC50.

T1 sequence (P09619 545-1106): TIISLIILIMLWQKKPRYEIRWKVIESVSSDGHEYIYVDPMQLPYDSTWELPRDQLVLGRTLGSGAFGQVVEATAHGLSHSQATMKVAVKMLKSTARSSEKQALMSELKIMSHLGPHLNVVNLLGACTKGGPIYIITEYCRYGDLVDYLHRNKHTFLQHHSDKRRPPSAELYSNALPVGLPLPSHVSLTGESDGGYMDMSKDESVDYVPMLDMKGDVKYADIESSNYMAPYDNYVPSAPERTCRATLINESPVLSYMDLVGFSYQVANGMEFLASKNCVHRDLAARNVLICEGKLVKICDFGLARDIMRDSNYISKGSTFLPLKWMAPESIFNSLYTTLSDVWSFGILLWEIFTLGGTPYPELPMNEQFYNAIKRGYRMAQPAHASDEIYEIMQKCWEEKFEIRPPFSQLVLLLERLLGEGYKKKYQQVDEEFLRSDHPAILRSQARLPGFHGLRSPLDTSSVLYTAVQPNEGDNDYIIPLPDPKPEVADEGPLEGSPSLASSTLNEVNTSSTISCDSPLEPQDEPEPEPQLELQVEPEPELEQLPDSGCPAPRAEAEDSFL

On to `COc1cccc(Nc2n[nH]c3c2Cc2sccc2-3)c1` [Compound 232, (5,7-Dihydro-1-thia-4,5-diaza-cyclopenta[a]pentalen-6-yl)-(3-methoxy-phenyl)-amine], for which the inhibition at 10 µM under setting [1] was determined as 102%. In addition, under setting [2], the IC50 was 0.0396 µM.

As to `COc1cc2c(cc1OC)-c1n[nH]c(Nc3cc(Cl)ccc3C)c1C2` [Compound 46, (5-Chloro-2-methyl-phenyl)-(6,7-dimethoxy-2,4-dihydro-indeno[1,2-c]pyrazol-3-yl)-amine], under setting [1], the inhibition at 10 µM stood at 51%. Further, under setting [2], the IC50 amounted to 14.2 µM.

`CCOc1cccc(Nc2[nH]nc3c2Cc2cc(OCC)c(OCC)cc2-3)c1` [Compound 375, (6,7-Diethoxy-2,4-dihydro-indeno[1,2-c]pyrazol-3-yl)-(3-ethoxy-phenyl)-amine]: the inhibition at 10 µM under setting [1] came out at 96.5%. The IC50 under setting [2] is 0.103 µM.

Take `CC(C)(C)c1cc(Nc2[nH]nc3c2Cc2cc(F)ccc2-3)cc(C(C)(C)C)c1` [Compound 303, (3,5-Di-tert-butyl-phenyl)-(6-fluoro-2,4-dihydro-indeno[1,2-c]pyrazol-3-yl)-amine]: the inhibition at 10 µM under setting [1] is 50%. Moreover, under setting [2], the IC50 came to 9.34 µM.

With `CCOc1cc2c(cc1OCCCO)-c1n[nH]c(Nc3cccc(F)c3)c1C2` [Compound 365, 3-[6-Ethoxy-3-(3-fluoro-phenylamino)-2,4-dihydro-indeno[1,2-c]pyrazol-7-yloxy]-propan-1-ol], the inhibition at 10 µM under setting [1] was found to be 99.5%. Further, the IC50 under setting [2] amounted to 0.0113 µM.

For the molecule `CCC1c2cc(OC)c(OC)cc2-c2n[nH]c(Nc3cccc(OC)c3)c21` (centres unmarked) [Compound 512, (4-Ethyl-6,7-dimethoxy-2,4-dihydro-indeno[1,2-c]pyrazol-3-yl)-(3-methoxy-phenyl)-amine], under setting [1], the inhibition at 10 µM turned out to be 92%. The IC50 under setting [2] is 0.183 µM.

With `COc1ccc(Nc2[nH]nc3c2Cc2cc(OC)c(OC)cc2-3)cc1Cl` [Compound 277, (3-Chloro-4-methoxy-phenyl)-(6,7-dimethoxy-2,4-dihydro-indeno[1,2-c]pyrazol-3-yl)-amine], the inhibition at 10 µM under setting [1] came to 88%. Under setting [2], the IC50 was 1.36 µM.

Regarding `OCCCOc1cccc2c1Cc1c-2n[nH]c1Nc1cccc(F)c1` [Compound 442, 3-[3-(3-Fluoro-phenylamino)-2,4-dihydro-indeno[1,2-c]pyrazol-5-yloxy]-propan-1-ol], under setting [1], the inhibition at 10 µM turned out to be 94.5%. Moreover, under setting [2], the IC50 amounted to 0.205 µM.

`COc1ccc(OC)c(Nc2[nH]nc3c2Cc2ccc(OC)cc2-3)c1` [Compound 174, (2,5-Dimethoxy-phenyl)-(7-methoxy-2,4-dihydro-indeno[1,2-c]pyrazol-3-yl)-amine]: the inhibition at 10 µM under setting [1] is 83%. Moreover, the IC50 under setting [2] is 0.346 µM.

As for `COc1cc2c(cc1OC)C(C(C)C)c1c-2n[nH]c1Nc1cccc(Cl)c1` (centres unmarked) [Compound 540, (3-Chloro-phenyl)-(4-isopropyl-6,7-dimethoxy-2,4-dihydro-indeno[1,2-c]pyrazol-3-yl)-amine], the inhibition at 10 µM under setting [1] worked out at 47%. Also, the IC50 under setting [2] turned out to be 14.7 µM.

As to `COc1ccc(OC)c2c1Cc1c-2n[nH]c1Nc1ccccc1` [Compound 332, (5,8-Dimethoxy-2,4-dihydro-indeno[1,2-c]pyrazol-3-yl)-phenyl-amine], the inhibition at 10 µM under setting [1] came to 90%. Under setting [2], the IC50 came to 0.372 µM.

Take `COCCCOc1cc2c(cc1OC)-c1n[nH]c(Nc3ccc(F)c(Cl)c3)c1C2` [Compound 166, (3-Chloro-4-fluoro-phenyl)-[7-methoxy-6-(3-methoxy-propoxy)-2,4-dihydro-indeno[1,2-c]pyrazol-3-yl]-amine]: the inhibition at 10 µM under setting [1] was determined as 88%. Moreover, under setting [2], the 50% inhibitory concentration (IC50) was found to be 0.085 µM.

Turning to `CNC(=S)n1nc2c(c1Nc1cccc(F)c1)Cc1cc(OC)c(OC)cc1-2` [Compound 580, 3-(3-Fluoro-phenylamino)-6,7-dimethoxy-4H-indeno[1,2-c]pyrazole-2-carbothioic acid methylamide], the inhibition at 10 µM under setting [1] was 93%. Further, the IC50 (read-out: IC50 (μM) on PDGF-R kinase activity) stood at 0.126 µM.

Take `COc1cc2c(cc1OC)-c1n[nH]c(NCC3CCCCC3)c1C2` [Compound 220, Cyclohexylmethyl-(6,7-dimethoxy-2,4-dihydro-indeno[1,2-c]pyrazol-3-yl)-amine]: the inhibition at 10 µM under setting [1] was determined as 73%. Under setting [2], the IC50 was determined as 3.29 µM.

For the molecule `COc1ccccc1Nc1[nH]nc2c1Cc1cc(OC)c(OC)cc1-2` [Compound 27, (6,7-Dimethoxy-2,4-dihydro-indeno[1,2-c]pyrazol-3-yl)-(2-methoxy-phenyl)-amine], the inhibition at 10 µM under setting [1] was 71%. Under setting [2], the IC50 amounted to 0.655 µM.

On to `COc1ccc(Nc2[nH]nc3c2Cc2ccc(C)cc2-3)cc1` [Compound 183, (4-Methoxy-phenyl)-(7-methyl-2,4-dihydro-indeno[1,2-c]pyrazol-3-yl)-amine], for which the inhibition at 10 µM under setting [1] stood at 53%. In addition, the IC50 under setting [2] was found to be 0.545 µM.

For `COc1cc2c(cc1OC)-c1n[nH]c(NCc3ccc(F)c(F)c3)c1C2` [Compound 275, (3,4-Difluoro-benzyl)-(6,7-dimethoxy-2,4-dihydro-indeno[1,2-c]pyrazol-3-yl)-amine], under setting [1], the inhibition at 10 µM is 80.5%. In addition, the IC50 under setting [2] came out at 0.501 µM.

Consider `CCOC(=O)c1ccc(Nc2[nH]nc3c2Cc2cc(OC)c(OC)cc2-3)cc1` [Compound 10, 4-(6,7-Dimethoxy-2,4-dihydro-indeno[1,2-c]pyrazol-3-ylamino)-benzoic acid ethyl ester], for which, under setting [1], the inhibition at 10 µM turned out to be 68%. Further, under setting [2], the IC50 was determined as 2.07 µM.

In the case of `Cc1ccc2c(c1)-c1n[nH]c(Nc3cccc(C(F)(F)F)c3)c1C2` [Compound 187, (7-Methyl-2,4-dihydro-indeno[1,2-c]pyrazol-3-yl)-(3-trifluoromethyl-phenyl)-amine], the inhibition at 10 µM under setting [1] was 35%.

With `CCC1c2cc(OC)c(OC)cc2-c2[nH]nc(Nc3cccc(Br)c3)c21` (single isomer, unassigned) [Compound 483, (3-Bromo-phenyl)-(4-ethyl-6,7-dimethoxy-1,4-dihydro-indeno[1,2-c]pyrazol-3-yl)-amine], under “PDGF-R kinase activity, compound at 10 uM, 10 µM”, the “Percent Inhibition @ 10 uM” value amounted to 78.5%. Moreover, under setting [2], the IC50 amounted to 4.97 µM.

`COc1cc2c(cc1OC)-c1n[nH]c(Nc3ccc(Cl)c(Cl)c3)c1C2` [Compound 18, (3,4-Dichloro-phenyl)-(6,7-dimethoxy-2,4-dihydro-indeno[1,2-c]pyrazol-3-yl)-amine]: the inhibition at 10 µM under setting [1] turned out to be 65%. Moreover, the IC50 under setting [2] worked out at 0.23 µM.

Consider `CNC(=O)CCCC(=O)n1nc(Nc2cccc(F)c2)c2c1-c1cc(OC)c(OC)cc1C2` [Compound 506, 5-[3-(3-Fluoro-phenylamino)-6,7-dimethoxy-4H-indeno[1,2-c]pyrazol-1-yl]-5-oxo-pentanoic acid methylamide], for which, under setting [1], the inhibition at 10 µM worked out at 97%. For the same molecule, the IC50 under setting [2] is 0.0294 µM.

For the molecule `CCC(=O)n1nc(Nc2cccc(F)c2)c2c1-c1cc(OC)c(OC)cc1C2` [Compound 430, 1-[3-(3-Fluoro-phenylamino)-6,7-dimethoxy-4H-indeno[1,2-c]pyrazol-1-yl]-propan-1-one], the inhibition at 10 µM under setting [1] amounted to 61.5%. Also, the IC50 under setting [2] amounted to 0.571 µM.

On to `COc1cc2c(cc1OC)-c1c(c(Nc3cccc(F)c3)nn1C(=O)NCCN)C2` [Compound 516, 3-(3-Fluoro-phenylamino)-6,7-dimethoxy-4H-indeno[1,2-c]pyrazole-1-carboxylic acid (2-amino-ethyl)-amide], for which the inhibition at 10 µM under setting [1] is 68.5%. Besides, the IC50 under setting [2] is 10 µM.

On to `COc1cc2c(cc1OC)-c1n[nH]c(Nc3cccc(C(C)O)c3)c1C2` (centres unmarked) [Compound 278, 1-[3-(6,7-Dimethoxy-2,4-dihydro-indeno[1,2-c]pyrazol-3-ylamino)-phenyl]-ethanol], for which the inhibition at 10 µM under setting [1] is 97%. Also, the IC50 under setting [2] came out at 0.0295 µM.

Take `COc1cc2c(cc1OC)-c1c(c(Nc3cccc(F)c3)nn1CC(C)=O)C2` [Compound 484, 1-[3-(3-Fluoro-phenylamino)-6,7-dimethoxy-4H-indeno[1,2-c]pyrazol-1-yl]-propan-2-one]: the inhibition at 10 µM under setting [1] amounted to 87%. The IC50 under setting [2] came to 0.218 µM.

Regarding `COc1cc2c(cc1OC)-c1c(c(Nc3cccc(F)c3)nn1C(=O)NCCNC(C)=O)C2` [Compound 526, 3-(3-Fluoro-phenylamino)-6,7-dimethoxy-4H-indeno[1,2-c]pyrazole-1-carboxylic acid (2-acetylamino-ethyl)-amide], the inhibition at 10 µM under setting [1] was 73%. The IC50 under setting [2] stood at 8.09 µM.

For orientation: inhibition means the drop in the measured response relative to a control, in per cent. In general, IC50 refers to the midpoint of a concentration-inhibition curve.
